Assay results as given in the supplement of paper PMC13380429.

Key:
[1] = tested on: A549-ACE2 infected with SARS-CoV-2; assay: SARS-CoV-2 infection rate relative to DMSO; higher = more infection; settings: 24 h
A549-ACE2 [2] = assay: drug-induced phospholipidosis relative to tamoxifen; higher = more phospholipidosis
Vero E6 [3] = assay: relative viability EC50 (midpoint between 100% and the lowest measured viability); higher = less toxic; settings: 72 h
U2OS [4] = assay: as above; settings: 72 h
[5] = tested on: A549-ACE2 infected with SARS-CoV-2; assay: morphology score (similarity to uninfected cells); higher = more like uninfected cells; settings: 24 h
[6] = tested on: A549-ACE2 infected with SARS-CoV-2; assay: cell count relative to DMSO; higher = less toxic; settings: 24 h
Vero E6 [7] = assay: drug sensitivity score (DSS) for viability; higher = more toxic; extreme values may be limits of the assay; settings: 72 h
U2OS [8] = assay: as above; settings: 72 h
HepG2 [9] = assay: as above; settings: 72 h
Calu-3 [10] = assay: as above; settings: 72 h
Caco-2 [11] = assay: as above; settings: 72 h
A549-ACE2 [12] = assay: phospholipidosis EC50; higher = less potent phospholipidosis inducer
Vero E6 [13] = assay: cell viability relative to DMSO; higher = less toxic; settings: 72 h
U2OS [14] = assay: as above; settings: 72 h
HepG2 [15] = assay: as above; settings: 72 h
Calu-3 [16] = assay: as above; settings: 72 h
Caco-2 [17] = assay: as above; settings: 72 h
HepG2 [18] = assay: relative viability EC50 (midpoint between 100% and the lowest measured viability); higher = less toxic; settings: 72 h
Calu-3 [19] = assay: as above; settings: 72 h
Caco-2 [20] = assay: as above; settings: 72 h

NCCC(Oc1ccc(C(F)(F)F)cc1)c1ccccc1 (stereo not given) [norfluoxetine]
Settings | SARS-CoV-2 infection rate [%] | cell count [%] | cell viability [%] | morphology score | phospholipidosis EC50 [µM]
A549-ACE2 [12], 24 h | – | – | – | – | 6.78
A549-ACE2 [12], 48 h | – | – | – | – | 5.96
A549-ACE2 [12], 72 h | – | – | – | – | 10.7
Caco-2 [17], 1 nM | – | – | 90 | – | –
Caco-2 [17], 10 nM | – | – | 104 | – | –
Caco-2 [17], 100 nM | – | – | 104 | – | –
Caco-2 [17], 1000 nM | – | – | 103 | – | –
Caco-2 [17], 10000 nM | – | – | 63.3 | – | –
Calu-3 [16], 1 nM | – | – | 96.4 | – | –
Calu-3 [16], 10 nM | – | – | 108 | – | –
Calu-3 [16], 100 nM | – | – | 100 | – | –
Calu-3 [16], 1000 nM | – | – | 93.6 | – | –
Calu-3 [16], 10000 nM | – | – | 54.3 | – | –
HepG2 [15], 1 nM | – | – | 93.6 | – | –
HepG2 [15], 10 nM | – | – | 92.5 | – | –
HepG2 [15], 100 nM | – | – | 107 | – | –
HepG2 [15], 1000 nM | – | – | 73.7 | – | –
HepG2 [15], 10000 nM | – | – | 64.7 | – | –
U2OS [14], 1 nM | – | – | 96.9 | – | –
U2OS [14], 10 nM | – | – | 102 | – | –
U2OS [14], 100 nM | – | – | 108 | – | –
U2OS [14], 1000 nM | – | – | 102 | – | –
U2OS [14], 10000 nM | – | – | 90.9 | – | –
Vero E6 [13], 1 nM | – | – | 106 | – | –
Vero E6 [13], 10 nM | – | – | 94.5 | – | –
Vero E6 [13], 100 nM | – | – | 99.8 | – | –
Vero E6 [13], 1000 nM | – | – | 95.7 | – | –
Vero E6 [13], 10000 nM | – | – | 84.4 | – | –
[1], 0.3 µM | 99 | – | – | – | –
[1], 3 µM | 84 | – | – | – | –
[1], 10 µM | 17 | – | – | – | –
[1], 30 µM | 46 | – | – | – | –
[5], 0.3 µM | – | – | – | 0.13 | –
[5], 3 µM | – | – | – | 0.26 | –
[5], 10 µM | – | – | – | 0.86 | –
[5], 30 µM | – | – | – | 0 | –
[6], 0.3 µM | – | 99 | – | – | –
[6], 3 µM | – | 103 | – | – | –
[6], 10 µM | – | 128 | – | – | –
[6], 30 µM | – | 73 | – | – | –

drug-induced phospholipidosis [%], A549-ACE2 [2]
Settings | 0.3 µM | 0.833333 µM | 3.33333 µM | 6.66667 µM | 10 µM | 30 µM
24 h | -1.03 | -3.68 | 19.4 | 73 | 85.6 | 130
48 h | 1.11 | -2.85 | 18.7 | 79.1 | 101 | 132
72 h | 2.19 | -3.51 | 8.94 | 50.5 | 78.9 | 153

Settings | drug sensitivity score | relative viability EC50 [µM]
Caco-2 [11] | 1.5 | –
Calu-3 [10] | 3.4 | –
HepG2 [9] | 4.7 | –
U2OS [4] | – | > 10
U2OS [8] | 0 | –
Vero E6 [3] | – | > 10
Vero E6 [7] | 0.7 | –

CCC(C)(C)C(=O)O[C@H]1C[C@@H](C)C=C2C=C[C@H](C)[C@H](CC[C@@H]3C[C@@H](O)CC(=O)O3)[C@H]21 [simvastatin]
[5]
Settings | morphology score
0.1 µM | 0.01
0.3 µM | 0.17
1 µM | 0.04
3 µM | -0.23

c1cc2c(cc1C1CCCCC1)c1c3n2CCNC3CCC1 (stereo not given) [tetrindole]
Settings | SARS-CoV-2 infection rate [%] | cell count [%] | cell viability [%] | morphology score | phospholipidosis EC50 [µM]
A549-ACE2 [12], 24 h | – | – | – | – | 6.5
A549-ACE2 [12], 48 h | – | – | – | – | 2.52
A549-ACE2 [12], 72 h | – | – | – | – | 3.19
Caco-2 [17], 1 nM | – | – | 101 | – | –
Caco-2 [17], 10 nM | – | – | 92.3 | – | –
Caco-2 [17], 100 nM | – | – | 92.9 | – | –
Caco-2 [17], 1000 nM | – | – | 98.5 | – | –
Caco-2 [17], 10000 nM | – | – | 6.9 | – | –
Calu-3 [16], 1 nM | – | – | 91.3 | – | –
Calu-3 [16], 10 nM | – | – | 94.9 | – | –
Calu-3 [16], 100 nM | – | – | 93.8 | – | –
Calu-3 [16], 1000 nM | – | – | 88.7 | – | –
Calu-3 [16], 10000 nM | – | – | 0.8 | – | –
HepG2 [15], 1 nM | – | – | 101 | – | –
HepG2 [15], 10 nM | – | – | 107 | – | –
HepG2 [15], 100 nM | – | – | 95.8 | – | –
HepG2 [15], 1000 nM | – | – | 83.2 | – | –
HepG2 [15], 10000 nM | – | – | 0.5 | – | –
U2OS [14], 1 nM | – | – | 94.8 | – | –
U2OS [14], 10 nM | – | – | 104 | – | –
U2OS [14], 100 nM | – | – | 97.6 | – | –
U2OS [14], 1000 nM | – | – | 99.5 | – | –
U2OS [14], 10000 nM | – | – | 24.1 | – | –
Vero E6 [13], 1 nM | – | – | 97.9 | – | –
Vero E6 [13], 10 nM | – | – | 91.4 | – | –
Vero E6 [13], 100 nM | – | – | 97.1 | – | –
Vero E6 [13], 1000 nM | – | – | 93.9 | – | –
Vero E6 [13], 10000 nM | – | – | 1.3 | – | –
[1], 0.1 µM | 102 | – | – | – | –
[1], 0.3 µM | 96 | – | – | – | –
[1], 1 µM | 77 | – | – | – | –
[1], 3 µM | 28 | – | – | – | –
[5], 0.1 µM | – | – | – | 0.02 | –
[5], 0.3 µM | – | – | – | 0.07 | –
[5], 1 µM | – | – | – | 0.29 | –
[5], 3 µM | – | – | – | 0.87 | –
[6], 0.1 µM | – | 102 | – | – | –
[6], 0.3 µM | – | 101 | – | – | –
[6], 1 µM | – | 102 | – | – | –
[6], 3 µM | – | 117 | – | – | –

drug-induced phospholipidosis [%], A549-ACE2 [2]
Settings | 0.3 µM | 0.833333 µM | 3.33333 µM | 6.66667 µM | 10 µM | 30 µM
24 h | 5.21 | 10.2 | 71.6 | 84.5 | 84.9 | 215
48 h | 7.95 | 8.82 | 80.8 | 101 | 115 | –
72 h | 7.78 | 3.52 | 72.2 | 101 | 122 | –

Settings | drug sensitivity score | relative viability EC50 [µM]
Caco-2 [11] | 5.4 | –
Caco-2 [20] | – | 3.05
Calu-3 [10] | 7.4 | –
Calu-3 [19] | – | 2.22
HepG2 [9] | 8.3 | –
HepG2 [18] | – | 1.88
U2OS [4] | – | 3.11
U2OS [8] | 4.3 | –
Vero E6 [3] | – | 2.68
Vero E6 [7] | 6.4 | –

N=C1CCCN1Cc1[nH]c(=O)[nH]c(=O)c1Cl [tipiracil]
Settings | drug sensitivity score | relative viability EC50 [µM]
Caco-2 [11] | 0 | –
Caco-2 [20] | – | > 10
Calu-3 [10] | 0 | –
Calu-3 [19] | – | > 10
HepG2 [9] | 0 | –
HepG2 [18] | – | > 10
U2OS [4] | – | > 10
U2OS [8] | 0 | –
Vero E6 [3] | – | > 10
Vero E6 [7] | 0 | –

cell viability [%]
Settings | Caco-2 [17] | Calu-3 [16] | HepG2 [15] | U2OS [14] | Vero E6 [13]
1 nM | 96.7 | 94.2 | 100 | 97.4 | 97.6
10 nM | 93.4 | 102 | 89.6 | 99 | 95.9
100 nM | 93.2 | 89.4 | 96.5 | 93.8 | 94.9
1000 nM | 98.1 | 97.4 | 101 | 97.5 | 92.6
10000 nM | 98.6 | 101 | 98.7 | 100 | 104

CCC[C@@]1(CCc2ccccc2)CC(O)=C([C@H](CC)c2cccc(NS(=O)(=O)c3ccc(C(F)(F)F)cn3)c2)C(=O)O1 [tipranavir]
Settings | drug sensitivity score | relative viability EC50 [µM]
Caco-2 [11] | 0 | –
Caco-2 [20] | – | > 10
Calu-3 [10] | 0 | –
Calu-3 [19] | – | > 10
HepG2 [9] | 0 | –
HepG2 [18] | – | > 10
U2OS [4] | – | > 10
U2OS [8] | 0 | –
Vero E6 [3] | – | > 10
Vero E6 [7] | 0 | –

cell viability [%]
Settings | Caco-2 [17] | Calu-3 [16] | HepG2 [15] | U2OS [14] | Vero E6 [13]
1 nM | 98.5 | 107 | 94.8 | 100 | 104
10 nM | 97.1 | 98.1 | 103 | 99.4 | 102
100 nM | 93.6 | 102 | 93.6 | 100 | 100
1000 nM | 103 | 109 | 103 | 104 | 102
10000 nM | 93.1 | 118 | 93.9 | 101 | 105
